Data published in patent publication US8334253B2, “Cosmetic and dermatological formulations of MNTF peptides” (Dermacare Neuroscience Institute, priority 2008, dated 2012).
Peptide text beside a SMILES is read from it. * marks the point of attachment. Palmitoyl = CCCCCCCCCCCCCCCC(=O)*

Legend:
[1] = system: hyaluronic acid levels in adult human dermal fibroblast (aHDF) conditioned media; assay: Hyaluronic acid in fibroblast-conditioned medium (HA-ELISA); assay type: cell-based; conditions: 96 h
Excerpt: Hyaluronic acid (hyaluronan, HA), a naturally occurring carbohydrate polymer is a key component of connective, epithelial and neural tissues. HA participates in hydrodynamics, movement and proliferation of cells. This test was designed to determine whether a sample of palmitylated and non-palmitylated MNTF hexapeptide has an effect on hyaluronic acid levels in the adult human dermal fibroblast (aHDF) conditioned media.
Adult HDF (facial, passage 2, Cell Applications, San Diego, Calif. cat.#106-05A lot#1392) were plated in high glucose phosphate-free DMEM supplemented with 5% cosmic serum from Hyclone, Utah) at 6,000 cells per well and test materials were added the following day. Test materials were: Pal-Hexapeptide (palmitylated SEQ ID NO:2 as a lyophilized powder labeled APC 341055, lot V08150A1, received from DermaCare Neuroscience Institute), type I sterile water (negative control) and basic fibroblast growth factor (bFGF, positive control). Pal-Hexapeptide was dissolved in water at 20 mg/ml. Final concentrations tested were: 400, 200, 100, 50 and 25 ug/ml for DNP and 5 ng/ml for bFGF (plate 507). After 96 h, cell culture conditioned media were collected and 100 ul aliquotes were used for the HA assay. HA assay was performed using Hyaluronan Enzyme-Linked Immunosorbent Assay Kit (HA-ELISA, cat. #K-1200) from Echelon (Salt Lake City, Utah). The HA output was measured by following the generation of a chromophoric reaction product in 96 well plate, with the use of a BioRad microplate reader at 410 nm and the effect of the test materials was determined using the formula: Absorbance 410 (sample)/Absorbance 410 (Zero HA)×100.
Adult HDF (facial, passage 2, Cell Applications, San Diego, Calif. cat.#106-05A lot#1392) were plated in high glucose phosphate-free DMEM supplemented with 5% cosmic serum from Hyclone, Utah) at 6,000 cells per well and test materials were added the following day. Test materials were: hexapeptide (SEQ ID NO:2 (non-palmitylated), lyophilized powder lot #D294, received from DermaCare Neuroscience Institute), type I sterile water (negative control) and basic fibroblast growth factor (bFGF, positive control). Pal-Hexapeptide was dissolved in water at 20 mg/ml. Final concentrations tested were: 2000, 1000, 500 and 250 ug/ml for hexapeptide and 5 ng/ml for bFGF (plate 507). After 96 h, cell culture conditioned media were collected and 100 ul aliquotes were used for the HA assay. HA assay was performed using Hyaluronan Enzyme-Linked Immunosorbent Assay Kit (HA-ELISA, cat. #K-1200) from Echelon (Salt Lake City, Utah). The HA output was measured by following the generation of a chromophoric reaction product in 96 well plate, with the use of a BioRad microplate reader at 410 nm and the effect of the test materials was determined using the formula: Absorbance 410 (sample)/Absorbance 410 (Zero HA)×100.

[2] = system: cellular peroxide levels in human epidermal keratinocytes; assay: Cellular peroxide levels in keratinocytes, DCFH-DA dye and flow cytometry, with and without exogenous H2O2; assay type: cell-based
Experimental: Hydrogen peroxide can induce damages to skin cells. The dermal protective efficacy of Pal-hexapeptide was assessed by measuring basal peroxide levels in the presence and absence of the compound.
Basal peroxide production, generated by normal cellular metabolism, induce gradual development of low levels of peroxide-specific cellular fluorescence.
Extracellular peroxides (e.g., H2O2 added exogenously) can permeate the cell membrane and cause a rapid and dramatic increase in the peroxide-specific fluorescence of the cell. Cellular peroxides levels can be measured by flow cytometry using the peroxide-specific dye, 2′,7′-dichlorofluorescein diacetate (DCFH-DA). DCFH-DA is initially non-fluorescent and is rapidly concentrated within living cells by an enzyme-dependent process. […] The results of the assay indicates if a test compound functions as an oxidant or an anti-oxidant in a cellular system. If the test article functions as an anti-oxidant, this assay can also be used to determine if the test compound can permeate the cell membrane to quench intracellular peroxide or if it can only affect extracellular peroxide levels (Bass et al., 1983, J. Immunol. 130:1910-1917; Bombick et al., 1992, Toxicol. Meth. 2:255-264).
Human primary keratinocytes, generally on the third passage, were seeded in T75 flasks and cultured until 70-80% confluent. A cell suspension was created and these cells were loaded with the dye DCFH-DA. The pre-incubated cells were exposed to dilutions of the Pal-hexapeptide having the amino acid sequence SEQ ID NO: 2 in two triplicate sets per dilution. One triplicate set was incubated with H2O2 (exogenous source of peroxide), and both sets were stained with Propidium Iodide. Cell viability and peroxide production were determined by fluorescence readings on a FACScan flow cytometer. Peroxide value increases or decreases of 25% or more compared to vehicle control values are considered biologically significant.

## CCCCCCCCCCCCCCCC(=O)N[C@@H](Cc1ccccc1)C(=O)N[C@@H](CO)C(=O)N[C@@H](CCCNC(=N)N)C(=O)N[C@@H](Cc1ccc(O)cc1)C(=O)N[C@@H](C)C(=O)N[C@@H](CCCNC(=N)N)C(=O)O [Pal 6 mer, Pal-FSRYAR] (Palmitoyl-FSRYAR-OH; C-terminus assumed)
[1]; 50 ug/ml
  stimulation of hyaluronic acid in the fibroblast-conditioned medium: about 15%
[1]; 100 ug/ml
  stimulation of hyaluronic acid in the fibroblast-conditioned medium: about 15%
[1]; 200 ug/ml
  stimulation of hyaluronic acid in the fibroblast-conditioned medium: 40%
[1]; 400 ug/ml
  stimulation of hyaluronic acid in the fibroblast-conditioned medium: 40%
[2]; 0.79 mM, endogenous peroxide
  peroxide level, % of the control, endogenous peroxide assay without exogenous H2O2: 40.21%
[2]; 0.79 mM, exogenous H2O2 added
  peroxide level, % of the control, assay with exogenous added peroxide: 9.88%
[2]; keratinocytes, Propidium Iodide staining
  Cell viability, expressed as % of non-viable, treated versus not treated cells: about the same
